The results in this text go back to PubChem BioAssay (NCI).

Among the test systems are HCT-116 colon; DU-145 prostate; COLO 205 colon; NCI-H23 lung; OVCAR-3 ovarian; MCF7 breast; MDA-MB-231 breast; EKVX NSCLC; RPMI-8226 leukemia; OVCAR-8 ovarian.
Test in all cases: NCI tumour cell line growth inhibition, 48 h

Molecules are shown by their SMILES.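 How tested: cells in 96-well plates exposed to compound for 48 hours at five concentrations. GI50 is the concentration that inhibits growth by half. TGI marks complete inhibition of growth.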

Take `O=C[C@@H](CO)O[C@H](C=O)n1cnc2c(=O)[nH]cnc21`: the TGI turned out to be 1270 µM in the test on HCT-116 colon; 1450 µM in the test on DU-145 prostate; 992 µM with COLO 205 colon; 1530 µM in the test with NCI-H23 lung; 1410 µM with OVCAR-3 ovarian; 409 µM in the test on MCF7 breast. Moreover, the TGI in the test with MDA-MB-231 breast was 1010 µM; with EKVX NSCLC, 1320 µM; in the test with RPMI-8226 leukemia, 633 µM; with OVCAR-8 ovarian, 2020 µM.
For `O=C1N=C(Nc2nc(-c3csc(NC4=NC(=O)/C(=C\c5ccccc5)S4)n3)cs2)S/C1=C/c1ccccc1`, the GI50 in the test with HCT-116 colon was 3.5 µM; in the test with DU-145 prostate, 16.8 µM; in the test with COLO 205 colon, 30.3 µM; with NCI-H23 lung it was 17.6 µM; with OVCAR-3 ovarian it was 20.8 µM; in the test on MCF7 breast, 3.7 µM. Further, the GI50 in the test with MDA-MB-231 breast is 4.78 µM; in the test on EKVX NSCLC, 12.7 µM; with RPMI-8226 leukemia it was 0.629 µM; in the test on OVCAR-8 ovarian, 15.6 µM. In addition, the TGI is 29 µM in the test on HCT-116 colon; above 50 µM in the test with DU-145 prostate; above 50 µM in the test with COLO 205 colon; above 50 µM in the test with NCI-H23 lung; above 50 µM in the test with OVCAR-3 ovarian; above 50 µM in the test with MCF7 breast. In addition, the TGI in the test with MDA-MB-231 breast was 18.8 µM; in the test on EKVX NSCLC, above 50 µM; with RPMI-8226 leukemia, 3.35 µM; in the test with OVCAR-8 ovarian, above 50 µM.
For the molecule `COC(=O)N[C@H]1CCc2c(Cl)c(OC)c(OC)c(OC)c2-c2ccc(SC)c(=O)cc21`, the GI50 in the test with HCT-116 colon, in the test on DU-145 prostate, in the test with COLO 205 colon, with NCI-H23 lung, in the test with OVCAR-3 ovarian and in the test with MCF7 breast was below 0.01 µM throughout. For the same molecule, the GI50 in the test on MDA-MB-231 breast, in the test on EKVX NSCLC, in the test on RPMI-8226 leukemia and in the test on OVCAR-8 ovarian was below 0.01 µM throughout. Besides, the TGI is above 100 µM in the test on DU-145 prostate; 0.0303 µM with COLO 205 colon; 37 µM with NCI-H23 lung; below 0.01 µM with OVCAR-3 ovarian; above 37.4 µM with MCF7 breast; 11.9 µM in the test with MDA-MB-231 breast. The TGI was 96.9 µM in the test with EKVX NSCLC, above 42.8 µM in the test with RPMI-8226 leukemia and above 100 µM with OVCAR-8 ovarian.
Consider `Nc1ccc(/C=C/c2ccc3cccnc3c2)cc1`, for which the TGI in the test on HCT-116 colon, with DU-145 prostate, in the test with COLO 205 colon, with NCI-H23 lung, with OVCAR-3 ovarian and in the test on MCF7 breast was above 100 µM each time. The TGI in the test with MDA-MB-231 breast, with EKVX NSCLC, in the test on RPMI-8226 leukemia and in the test with OVCAR-8 ovarian was above 100 µM throughout.
`COc1ccc(-c2cc(=O)c3c(O)c(OC)c(OC)c(OC)c3o2)cc1`: the TGI in the test with HCT-116 colon is above 100 µM; in the test with DU-145 prostate, above 100 µM; in the test on COLO 205 colon, above 100 µM; with NCI-H23 lung it was above 74.7 µM; in the test with OVCAR-3 ovarian, above 100 µM; in the test on MCF7 breast it was above 100 µM. For the same molecule, the TGI with MDA-MB-231 breast is above 72 µM; with EKVX NSCLC, above 100 µM; in the test with RPMI-8226 leukemia it was above 100 µM; in the test with OVCAR-8 ovarian, above 100 µM.
With `Cc1ccc(C(=O)NC2CC2)cc1-c1ccc2[nH]ncc2c1`, the GI50 with HCT-116 colon, with DU-145 prostate, in the test with COLO 205 colon, with NCI-H23 lung, in the test with OVCAR-3 ovarian and with MCF7 breast was above 25 µM each time. Besides, the GI50 in the test on MDA-MB-231 breast, with EKVX NSCLC, in the test with RPMI-8226 leukemia and in the test on OVCAR-8 ovarian was above 25 µM throughout. For the same molecule, the TGI in the test with HCT-116 colon, with DU-145 prostate, in the test with COLO 205 colon, in the test on NCI-H23 lung, in the test on OVCAR-3 ovarian and in the test with MCF7 breast was above 25 µM throughout. Besides, the TGI with MDA-MB-231 breast, in the test on EKVX NSCLC, in the test with RPMI-8226 leukemia and in the test with OVCAR-8 ovarian was above 25 µM throughout.
With `CC1(C)CCC[C@]2(C)c3ccccc3C(=O)CC12` (some centres undefined), the GI50 in the test with HCT-116 colon was 35 µM; in the test with DU-145 prostate, 65.7 µM; in the test on COLO 205 colon it was 27.4 µM; with NCI-H23 lung, 39.4 µM; with OVCAR-3 ovarian, 41.2 µM; with MCF7 breast, 38.2 µM. Moreover, the GI50 in the test with MDA-MB-231 breast was 30.8 µM; in the test on EKVX NSCLC, 42.9 µM; in the test with RPMI-8226 leukemia, 29.7 µM; in the test with OVCAR-8 ovarian, 32.1 µM. For the same molecule, the TGI in the test on HCT-116 colon, in the test on DU-145 prostate, in the test on COLO 205 colon, with NCI-H23 lung, in the test with OVCAR-3 ovarian and with MCF7 breast was above 100 µM throughout. The TGI with MDA-MB-231 breast, in the test on EKVX NSCLC, in the test on RPMI-8226 leukemia and with OVCAR-8 ovarian was above 100 µM each time.
With `C[N+](C)=c1ccc2nc3c(cc(NCCCNc4cc5oc6cc(=[N+](C)C)ccc-6nc5c5ccccc45)c4ccccc43)oc-2c1`, the GI50 in the test on HCT-116 colon was 1.95 µM; in the test with DU-145 prostate it was 1.53 µM; with COLO 205 colon, 1.02 µM; with NCI-H23 lung, 1.61 µM; in the test with OVCAR-3 ovarian, 0.341 µM; in the test on MCF7 breast it was 0.885 µM. Further, the GI50 with MDA-MB-231 breast was 1.33 µM; with EKVX NSCLC, 4.77 µM; in the test with RPMI-8226 leukemia, 1.69 µM; in the test with OVCAR-8 ovarian, 1.9 µM. Also, the TGI in the test with HCT-116 colon was determined as 5.79 µM; in the test on DU-145 prostate, 2.91 µM; with COLO 205 colon, 2.45 µM; with NCI-H23 lung, 5.45 µM; with OVCAR-3 ovarian, 2.33 µM; in the test on MCF7 breast, 3.23 µM. In addition, the TGI was 4.83 µM in the test on MDA-MB-231 breast, 18.5 µM in the test on EKVX NSCLC, 13.1 µM in the test on RPMI-8226 leukemia and 5.85 µM in the test on OVCAR-8 ovarian.
In the case of `COC(C)C(O)(C(=O)OCC1=CCN2CCC(O)C12)C(C)(C)O` (centres undefined), the TGI in the test with HCT-116 colon, in the test with DU-145 prostate, in the test with COLO 205 colon, in the test with NCI-H23 lung, in the test on OVCAR-3 ovarian and in the test on MCF7 breast was above 100 µM throughout. Besides, the TGI in the test with MDA-MB-231 breast, with EKVX NSCLC, in the test with RPMI-8226 leukemia and with OVCAR-8 ovarian was above 100 µM throughout.
